# Results as given in paper PMC7824259, “Novel Cecropin-4 Derived Peptides against Methicillin-Resistant Staphylococcus aureus” (Antibiotics, 2021).
# Read-outs that look alike come from different tables or passages of the source. No end group written: not given here.
# Experiments:
# [1] = tested on: S. aureus MW2; assay: Checkerboard synergy of C18 with clinical antibacterial agents; format: cell-based, Staphylococcus aureus; details: for Kind of interaction with C18: named agent combined with C18, S. aureus MW2, checkerboard; for FICI (fractional inhibition concentration index): named agent combined with C18, S. aureus MW2, 8 × 8 checkerboard, synergy FICI ≤ 0.5, additive 0.5 < FICI ≤ 4, antagonism > 4
# Description: The checkerboard assay was used to evaluate the synergy of C18 with conventional antibacterial agents against S. aureus MW2 [40]. Briefly, an 8 × 8 matrix was formed in a 96-well microtiter petri dish with two-fold serial dilutions of C18 combined with each conventional antibacterial agent. The fractional inhibition concentration index (FICI) was calculated: FICI = MIC of compound A in combination / MIC of compound A alone +MIC of compound B in combination / MIC of compound B alone.
# [2] = tested on: S. aureus MW2; assay: microbe, parasite or virus in culture; format: cell-based, Staphylococcus aureus; details: for MIC: Staphylococcus aureus, MW2, 18 h
# Description: Broth microdilution assays determined the MICs of peptides following the method described by the Clinical and Laboratory Standards Institute. In short, for each peptide, serial dilutions (50 µL) in duplicates were made in Mueller-Hinton broth (BD, Franklin Lakes, NJ, USA) in a 96-well plate (Cat No. 3595, Corning, NY, USA). […] After bacterial addition, the plates were incubated at 37°C for 18 h. […] To investigate each peptide’s activity in high salt concentrations or human serum, the MIC was again tested as described in the previous paragraph of the experimental method. […] All MIC assays were conducted in duplicate, with each experiment replicated twice.
# [3] = tested on: S. aureus MW2; assay: Propidium iodide membrane permeability; format: cell-based, Staphylococcus aureus; details: 32 µg/mL, 1 h incubation
# Description: Fluorescence-based bacterial permeation assay was used to follow the membrane-oriented interactions of the designed peptides. The propidium iodide probe is generally used to establish a pore formation mechanism of AMPs. In short, S. aureus MW2 was inoculated in MHB and grown overnight at 37 °C overnight with shaking at 220 rpm. A fresh inoculation was done the next day in the same media to achieve exponential growth. The culture was then washed with PBS 3 times and adjusted to OD600 ~0.3 in PBS. We added 48 μL of this culture to a 96-well black clear-bottom plate (Cat no. 3904, Corning, NY, USA) containing 50 μL of serially diluted 2 × peptide concentrations, and 2 μL of propidium iodide (20 μM) was added per well. Fluorescence was measured by SpectraMax M2 (Molecular Devices, CA, USA) with an excitation wavelength of 584 nm and an emission wavelength of 620 nm after 1 h at room temperature.
# [4] = Rhodamine-BF dye leakage from liposomes; details: liposomes DOPC: Cholesterol, 55:40; 1 h incubation
# Description: We also performed dye leakage experiments to further understand the membrane interactive nature of the peptides. A dye, rhodamine-BF, entrapped in liposomes (DOPC: Cholesterol, 55:40) was subjected to the action of the peptides.
# [5] = tested on: human red blood cells; format: cell-based; details: for HL50 (50% of human red blood cells were lysed): 1 h
# Description: The ability of the peptide to cause hemoglobin leakage was evaluated, as described in a previous study. Human erythrocytes were purchased from Rockland Immunochemicals (Limerick, PA, USA), washed 3 × times in equal volume PBS, and resuspended as 4% hRBCs solution. One hundred microliters of the blood cells were added to 100 µl of the peptide solution in PBS serially diluted from 4–128 µg/mL in a 96-well microtiter plate. PBS and 1% Triton-X 100 were used as […] controls. Upon adding the blood cells, the plate was incubated at 37 °C for 1 h and then centrifuged at 500× g for 5 min. One hundred microliters of the supernatant were transferred to a fresh 96-well plate, and absorbance was read at 540 nm. The hemolysis percentage was calculated considering 100% hemolysis caused by 1% Triton X-100 and 0% on PBS. The values were represented as the mean of duplicates. The following formula calculated the percentage of hemolysis: (A540 nm in the peptide solution − A540 nm in PBS)/(A540 nm of 1% Triton X-100 treated sample − A540 nm in PBS) × 100. Zero and 100% percentage hemolysis were determined in PBS and […], respectively.
# [6] = tested on: G. mellonella larvae; assay: Galleria mellonella toxicity; format: in vivo; details: uninfected larvae, doses 4, 8, 16, 32 mg/kg, even at 32 mg/kg, until 120 h, n = 16/group
# Description: To study the protective effects of the peptide C18 in an in vivo model, we used an established wax moth model system. G. mellonella larvae (Vanderhorst Wholesale, St. Mary’s, OH, USA) were distributed as a different group with randomly selected larvae (n = 16/group). The S. aureus MW2 bacteria were grown to exponential phase from overnight culture. Cells were then washed with PBS three times and finally suspended in PBS with an OD600 = 0.3. Experimental groups consisted of untouched (no injection), PBS (vehicle), bacterial infection group, and treatment group. Vancomycin was used as a positive control. […] All injections were performed using a Hamilton syringe on the last left proleg. The larvae were incubated at 37 °C for 5 days, with live and dead counts being performed every 24 h.
# [7] = tested on: HepG2 cells; assay: Mammalian cell cytotoxicity (WST-1); format: cell-based, human; details: 64 µg/mL, HepG2, 24 h
# Description: HepG2 cells were used to assess the mammalian cell cytotoxicity of AMPs, as described previously. Cells were grown in Dulbecco’s Modified Eagle Medium (DMEM) (Gibco, MD, USA) supplemented with 10% fetal bovine serum (FBS) (Gibco, MD, USA) and 1% penicillin/streptomycin (Gibco, MD, USA) and maintained at 37°C in 5% CO2. Cells were harvested and resuspended in a fresh medium, and 100 µL were distributed in a 96-well plate at […]. AMPs were serially diluted in serum and antibiotic-free DMEM added to the monolayer of the cells, and the plates were incubated at 37 °C in 5% CO2 for 24 h. At 4 h, before the end of the incubation period, 10 µL of 2-(4-iodophenyl)-3-(4-nitrophenyl)-5-(2, 4-disulfophenyl)-2H-tetrazolium (WST-1) solution (Roche, Mannheim, Germany) was added to each well. WST-1 reduction was monitored at 450 nm using a Vmax microplate reader. Assays were performed in triplicate, and the percentage of cell survival was calculated.
# [8] = tested on: psGABO-SPE plasmid DNA; assay: Plasmid band shift assay (DNA binding)
# Description: The methods in the reference were used to detect the ability of C18 binding DNA [43]. Briefly, the reaction of 20 μL containing 100 ng psGABO-SPE plasmid DNA (Addgene, MA, USA), polymyxin B, and C18 (1.95–500 μM) or ddH2O (control) was incubated in TE (Tris-EDTA) buffer (Invitrogen, CA, USA) at 37 °C for 2 h. The products were detected in 1% agarose gel electrophoresis, and plasmid migration was observed on a G: BOX Chemi XT4 gel doc system.
Molecule,Kind of interaction with C18 [1],FICI (fractional inhibition concentration index) [1],HL50 (50% of human red blood cells were lysed) [5] [µg/mL],further results
CCCCCCCCCC(=O)N[C@@H](Cc1c[nH]c2ccccc12)C(=O)N[C@H](CC(N)=O)C(=O)N[C@@H](CC(=O)O)C(=O)N[C@@H]1C(=O)NCC(=O)N[C@@H](CCCN)C(=O)N[C@@H](CC(=O)O)C(=O)N[C@H](C)C(=O)N[C@@H](CC(=O)O)C(=O)NCC(=O)N[C@H](CO)C(=O)N[C@@H]([C@H](C)CC(=O)O)C(=O)N[C@@H](CC(=O)c2ccccc2N)C(=O)O[C@@H]1C [daptomycin],synergistic effect,–,–,–
CNC(C)C1CCC(N)C(OC2C(N)CC(N)C(OC3OCC(C)(O)C(NC)C3O)C2O)O1 (stereo not shown) [gentamicin],additive effect,1.25,–,–
Cc1onc(-c2ccccc2)c1C(=O)N[C@@H]1C(=O)N2[C@@H]1SC(C)(C)[C@@H]2C(=O)O [oxacillin],additive effect,0.75,–,–
CN[C@H](CC(C)C)C(=O)N[C@H]1C(=O)N[C@@H](CC(N)=O)C(=O)N[C@H]2C(=O)N[C@H]3C(=O)N[C@H](C(=O)N[C@H](C(=O)O)c4cc(O)cc(O)c4-c4cc3ccc4O)[C@H](O)c3ccc(c(Cl)c3)Oc3cc2cc(c3O[C@@H]2O[C@H](CO)[C@@H](O)[C@H](O)[C@H]2O[C@H]2C[C@](C)(N)[C@H](O)[C@H](C)O2)Oc2ccc(cc2Cl)[C@H]1O [vancomycin],additive effect,0.625,–,"MIC against S. aureus MW2, Serum (5%) ([2]; MHB with human serum (5%), 37 °C, 18 h, duplicate, replicated twice): not changed; MIC ([2]; read-out: MIC against S. aureus MW2, CaCl2 (2 mM)): 2 µg/mL; MIC ([2]; read-out: MIC against S. aureus MW2, MHB): 2 µg/mL; MIC ([2]; read-out: MIC against S. aureus MW2, NaCl (150 mM)): 2 µg/mL; Propidium iodide fluorescence [3]: unable to induce any fluorescence; Rhodamine-BF fluorescence (dye leakage) [4]: lowest"
LWKIGKKIWRVLWNWR [C18],–,–,16,HL50 relative to MIC against MRSA MW2 [5]: 4 times; Larvae survival (toxicity) [6]: more than 70%
LWKIWKKIWRVGWNWR [C13],–,–,48,–
LWKIWKKIWRVWKNWR [C16],–,–,16,–
LWKIWWKIWRVWKNWR [C22],–,–,4,Reduction of live-cell contents [7]: 20%
polymyxin B,–,–,–,"Concentration of significant DNA binding ([8]; 100 ng plasmid, TE buffer, 37 °C, 2 h, 1% agarose gel, 1.95–500 μM tested): 31.2 µM; Concentration of significant DNA binding ([8]; same concentration in brackets): 37.1 µg/mL"
